Experimental data published in patent US20240317762A1, “PHTHALAZINONE-BASED PARP-1 INHIBITORS” (Oregon Health & Science University, priority 2021, published 2024).

How the values were obtained:
[1] = test system: pan-nuclear γH2AX in HEK 293T cells; assay: γH2AX immunofluorescence; format: cell-based, human; conditions: for reduction of AZ0108-induced pan-nuclear γH2AX / increase of AZ0108-induced pan-nuclear γH2AX: kinase inhibitor co-treated with AZ0108
Description: HEK 293T or HEK 293 PARP-1 KO cells were seeded onto poly-d-lysine treated glass coverslips and treated with indicated concentrations of inhibitors for 18 hours. Cells were then washed with 1×PBS and fixed using 4% Sucrose/4% Paraformaldehyde in PBS for 20 minutes. After three washes in 1×PBS, cells were permeabilized in 0.3% Triton X-100 in PBS for 5 minutes followed by an additional three washes in 1×PBS. Coverslips were blocked in 3% BSA/0.1% Triton X-100 in PBS for 1 hour and then placed in primary anti-rabbit phosphoH2Ax antibody (1:200, Cell Signaling) overnight at 4° C. The next morning, cells were washed three times in 1×PBS and treated with blocking solution, 3% BSA/0.1% Triton X-100 in PBS, for 30 minutes before being placed in secondary anti-rabbit Alexa Fluor 647 (1:1000 Jackson Immuno) for 1 hour at RT. After three subsequent 1×PBS washes, coverslips were mounted using ProLong Gold antifade reagent with DAPI (Invitrogen). All immunofluorescence images were taken on a Zeiss ApoTome2 on Axiolmager and analyzed using Zeiss software. Mean intensity of the Alexa Fluor 647 signal was measured after imposing DAPI masks over the nucleus of each cell. All cells within a 20× image, was analyzed (˜3000 cells/condition).
Cell are stained for DAPI and γH2AX. Scale bar indicates 50 μm. FIG. 2B) Quantification of panel a. […] Error bars represent SEM. […] Error bars represent SEM. […] Error bars represent SEM.

[2] = test system: Ewing sarcoma cell line EW-8; assay: ES-8 viability screen (CellTiter-Glo); format: cell-based; conditions: for Fold Difference to Pip6: ratio of EC50 values; for EC50: viability, 72 h
Description: Cell viability was measured using the CellTiter-Glo (Promega, G7573) assay and read using an Envision (PerkinElmer) plate reader. Compound source plates (96-well) were prepared by solubilizing each drug in DMSO to a maximum concentration of 1-50 mM, then arraying samples in 10-point dose-response with 3-fold dilution. Positive and negative controls (staurosporine at 10 mM and DMSO, respectively) were added to the source plates. Drug was transferred from the source plate to the assay plate using a Biomek FX (Beckman Coulter) liquid handler equipped with a pin tool which transferred ˜100 nl into a final volume of 100 μl, resulting in ˜1000-fold dilution. At least two biological replicates (assay performed on different day with same drug plate and independent cell preparation) were obtained for each drug. To analyze the assay, the relative light unit signal in each well was first log 2 transformed, then normalized by subtracting the mean of the negative controls wells on each plate.
FIGS. 6A-6E. […] 0.1 μM ad-olaparib (chemical structure indicated in panel a) was added to the cells for 1 hour before undergoing a UV treatment for 5 minutes in cold PBS. Cells were lysed and sonicated in PBS (1% Triton X-100+1% SDS), clicked with TAMRA-azide and run out on SDS-PAGE. The gel was imaged for TAMRA and probed for PARP-1 (Bethyl Laboratories), and alpha-tubulin (X). FIGS. 6B, 6D) Quantification of western blot images. TAMRA or ADPr values are normalized to PARP-1 within each replicate and plotted as percentage compared to DMSO. Error bars indicate SEM (n=3-4). Statistical significance of off-rate calculated via multiple t-tests (p<0.05). […] Cells were subsequently treated with PARGi (10 μM) for 30 minutes, lysed using RIPA buffer, run out on SDS-PAGE, and probed for ADPr (Cell Signaling) and PARP-1 (Bethyl Laboratories). FIG. 6E) ES-8 cells were treated with indicated concentration of inhibitors for 72 hours before measuring cell viability using the CellTiter-Glo kit (Promega G7573). IC50 values were calculated using R statistical software.

HEK 293T cells [3] = assay: analysis of cell cycle (DAPI, flow cytometry); conditions: for G1 / G2 / S: DAPI intensity, 18 hours
Description: After the indicated treatments, cells were washed twice with 1× PBS, trypsinized off of the plate, and washed an additional 2 times with 1×PBS. Cells were then permeabilized using 70% cold ethanol while vortexing before incubating for 30 min at 4° C. Cells were then washed three times with 1×PBS and counted using a hemocytometer to create a final pellet of 1×10^6 cells in for each inhibitor condition. 500 μl of DAPI solution (1 μg/ml DAPI, 0.1% Triton X-100 in PBS) was added to each cell pellet and incubated on ice for 30 min before being analyzed by flow cytometry using a BD Canto II. All data was analyzed on FlowJo software, gating for 20,000 singlet events. Manual cell cycle gates were set onto the DMSO control data using Watson modeling as reference. These gates were applied to all treatment conditions to obtain quantitative analysis.
Error bars represent SEM. […] Caspase-Glo 3/7 reagent was added to each well and luminescence was read after 30 minutes. […] Error bars represent SEM. […] Cell cycle was analyzed by flow cytometry (20,000 singlet events) and cell cycle statistics were calculated in FlowJo software against DMSO Watson modeling (n=3). FIG. 3F) DNA synthesis was measured using EdU incorporation. […] EdU incorporation was labelled using TAMRA azide click-chemistry and imaged at 20×. Mean intensity of TAMRA signal within DAPI masks analyzed using Zen software (n>3900 cells over 2 replicates). Values are normalized to the average DMSO control within each replicate. Error bars represent SEM. Statistical significance calculated via one-way ANOVA with Tukey's multiple comparisons test (p<0.05).

HEK 293T cells [4] = assay: cell proliferation (MTT) assay; format: cell-based, human; conditions: MTT, 72 h; for EC50: Homo sapiens, HEK-293T, read-out: EC50 cell growth
Description: HEK 293T or HEK 293 PARP-1 KO cells were seeded in a 96 well plate at 1000-2000 cells per well. Following an overnight incubation, MTT reagent, 3-(4,5-dimethylthiazol-2-yl)-2,5-diphenyltetrazolium bromide, or a dosage curve of indicated inhibitor was added to each well in quadruplicate. Following a 3-hour incubation at 37° C., wells containing MTT reagent, were aspirated and lysed with 100 μl DMSO. These wells acting as a no growth control were collected, saved @ −20° C., and replaced with 100 μl water. The plate was placed back into the incubator for a total of 72 hours of inhibitor treatment prior to MTT reagent being added for a final time. Following a 3 hour incubation with the reagent, wells were aspirated, and 100 μl DMSO were added to each well, while the no growth control sample was added back to the plate. Absorbance was read on a SpectraMaxi3 plate reader (Molecular Devices). Percent growth was calculated for analysis. Statistical significance was assigned using individual t-tests between conditions for each inhibitor dosage.
(§1) Error bars represent SEM. […] Error bars represent SEM. […] Error bars represent SEM.

[5] = test system: caspase-3/7 activity in HEK 293 cells; assay: cell apoptosis assay (Caspase-Glo 3/7); format: cell-based, human; conditions: 1 μM, 72 hours
Description: HEK 293 or HEK 293 PARP-1 KO cells were seeded in a 96 well plate at 1000-2000 cells per well, a media only “blank” was also included. Following an overnight incubation, cells were treated with 1 μM of indicated inhibitors. “Blank” wells were treated with DMSO. Following a 72 hour inhibitor treatment, the Caspase-Glo 3/7 Assay was completed following the manufacturer instructions (Promega, #G8091). Luminescence was read on a SpectraMax i3 plate reader (Molecular Devices).
as §1

PARP-1 [6] = target: T1, PARP-1 (Homo sapiens, UniProt P09874); assay: in vitro fluorescence polarization DNA competition assay; conditions: 25 μM compound; PARP-1 40 nM; nicked dumbbell DNA probe 20 nM
T1 sequence (P09874 whole entry): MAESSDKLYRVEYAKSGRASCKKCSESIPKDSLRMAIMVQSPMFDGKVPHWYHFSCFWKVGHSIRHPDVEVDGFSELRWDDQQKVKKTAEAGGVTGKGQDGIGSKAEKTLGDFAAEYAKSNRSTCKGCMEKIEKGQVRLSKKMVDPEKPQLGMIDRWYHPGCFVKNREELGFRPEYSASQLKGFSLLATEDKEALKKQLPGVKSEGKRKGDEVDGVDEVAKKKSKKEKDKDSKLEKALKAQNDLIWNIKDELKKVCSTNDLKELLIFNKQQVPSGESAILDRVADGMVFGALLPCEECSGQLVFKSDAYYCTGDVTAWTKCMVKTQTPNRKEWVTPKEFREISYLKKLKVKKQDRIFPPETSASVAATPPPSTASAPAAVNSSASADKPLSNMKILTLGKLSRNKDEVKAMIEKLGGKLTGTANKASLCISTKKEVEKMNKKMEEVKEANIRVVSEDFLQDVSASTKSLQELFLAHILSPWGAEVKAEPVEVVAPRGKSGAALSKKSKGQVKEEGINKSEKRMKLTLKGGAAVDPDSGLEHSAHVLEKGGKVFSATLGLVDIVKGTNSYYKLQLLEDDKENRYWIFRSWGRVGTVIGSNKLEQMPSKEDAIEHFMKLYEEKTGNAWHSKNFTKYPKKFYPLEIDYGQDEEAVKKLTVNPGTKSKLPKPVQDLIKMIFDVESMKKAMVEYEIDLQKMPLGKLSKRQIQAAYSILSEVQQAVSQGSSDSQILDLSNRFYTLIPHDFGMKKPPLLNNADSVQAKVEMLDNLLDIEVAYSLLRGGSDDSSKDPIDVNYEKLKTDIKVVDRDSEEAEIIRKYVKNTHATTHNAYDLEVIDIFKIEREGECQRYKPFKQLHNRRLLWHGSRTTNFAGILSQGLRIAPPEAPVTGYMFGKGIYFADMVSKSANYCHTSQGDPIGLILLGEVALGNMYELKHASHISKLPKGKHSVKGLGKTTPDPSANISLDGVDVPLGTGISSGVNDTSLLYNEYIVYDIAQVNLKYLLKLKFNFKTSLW
Description: The full-length WT PARP-1 protein used in these assays was purified as described previously (30).
An unlabeled competitor was added and the decrease in fluorescence polarization was measured across time.

PARP-1 [7] = target: T1, PARP-1; assay: in vitro PARP-1 auto-PARylation assay (SRPK2 plate assay); format: biochemical; parameters: The full-length WT PARP-1 protein used in these assays; made in house; conditions: read-out: IC50 against PARP-1 catalytic activity (auto-PARylation)
Description: IC50 SRPK2 Plate Assays were performed as previously described (21). Log(inhibitor) versus response curves were fit using non-linear regression with variable slope. Mean IC50 values for each compound were derived from a minimum of three separate replicates.

[8] = test system: Ser345 phosphorylation of Chk1 in HEK 293 cells; assay: western blot analysis of phosphorylation of Chk1; conditions: co-treatment with AZ0108
[9] = test system: PARP-1 (full-length WT) (Homo sapiens); assay: FP; conditions: 5 uM AZ0108 increased affinity 4-fold over no inhibitor; olaparib only modest effect

O=c1cc(-c2cccc3c2Sc2ccccc2S3)oc(N2CCOCC2)c1 [KU-55933]
reduction of AZ0108-induced pan-nuclear γH2AX [1]: ~2 fold

O=c1cc(N2CCOCC2)oc2c(-c3cccc4c3sc3ccccc34)cccc12 [NU7441]
increase of AZ0108-induced pan-nuclear γH2AX [1]: ~1.3 fold

NC(=O)c1cccc2cn(-c3ccc([C@@H]4CCCNC4)cc3)nc12 [Niraparib]
Fold Difference to Pip6 [2]: 5693 | EC50 [2]: 1380 nM

O=C(c1cc(Cc2n[nH]c(=O)c3ccccc23)ccc1F)N1CCN(C(=O)C2CC2)CC1 [Olaparib]
pan-nuclear γH2AX induction ([1]; HEK 293T cells, 18 hours): did not induce either pan-nuclear γH2AX or γH2AX foci | effect of co-treatment on AZ0108-induced pan-nuclear γH2AX ([1]; co-treatment with AZ0108): reversed the effects of AZ0108 on pan-nuclear γH2AX | G1 (HEK 293T cells [3]): 19.4% | G2 (HEK 293T cells [3]): 9.50% | S (HEK 293T cells [3]): 54.0% | effect on cell cycle (HEK 293T cells [3]; FACS, DAPI fluorescence): did not alter the cell cycle | EC50 (HEK 293T cells [4]): ~10000 nM | reduction of caspase-3/7 activity [5]: did not significantly affect

O=C(c1cc(Cc2n[nH]c(=O)c3ccccc23)ccc1F)N1CCn2cnnc2C1 [Pip1, 4-(4-Fluoro-3-(5,6,7,8-tetrahydro-[1,2,4]triazolo[4,3-a]pyrazine-7-carbonyl)benzyl)phthalazin-1(2H)-one]
exchange of the PARP-1:labled DNA complex with an unlabeled DNA competitor (PARP-1 [6]): very little impact | EC50 (HEK 293T cells [4]): ~6000 nM | IC50 (PARP-1 [7]): 3.9 nM

Cc1nnc2n1CCN(C(=O)c1cc(Cc3n[nH]c(=O)c4ccccc34)ccc1F)C2 [Pip2, 4-(4-Fluoro-3-(3-methyl-5,6,7,8-tetrahydro-[1,2,4]triazolo[4,3-a]pyrazine-7-carbonyl)benzyl) phthalazin-1(2H)-one]
exchange of the PARP-1:labled DNA complex with an unlabeled DNA competitor (PARP-1 [6]): very little impact

O=C(c1cc(Cc2n[nH]c(=O)c3ccccc23)ccc1F)N1CCn2c(nnc2C(F)(F)F)C1 [Pip3, 4-(4-Fluoro-3-(3-(trifluoromethyl)-5,6,7,8-tetrahydro-[1,2,4]triazolo[4,3-a]pyrazine-7-carbonyl)benzyl) phthalazin-1(2H)-one]
potency in inhibiting cell growth compared with AZ0108 (HEK 293T cells [4]): substantially more potent than AZ0108

CC(C)c1nnc2n1CCN(C(=O)c1cc(Cc3n[nH]c(=O)c4ccccc34)ccc1F)C2 [Pip4, 4-(4-Fluoro-3-(3-isopropyl-5,6,7,8-tetrahydro-[1,2,4]triazolo[4,3-a]pyrazine-7-carbonyl)benzyl) phthalazin-1(2H)-one]
IC50 (PARP-1 [7]): 17.5 nM

CC(F)(F)c1nnc2n1CCN(C(=O)c1cc(Cc3n[nH]c(=O)c4ccccc34)ccc1F)C2 [Pip5, 4-(4-Fluoro-3-(3-(1,1-difluoroethyl)-5,6,7,8-tetrahydro-[1,2,4]triazolo[4,3-a]pyrazine-7-carbonyl)benzyl)phthalazin-1(2H)-one]
potency in inhibiting cell growth compared with AZ0108 (HEK 293T cells [4]): substantially more potent than AZ0108

CNCc1ccc(-c2[nH]c3cc(F)cc4c3c2CCNC4=O)cc1 [Rucaparib]
Fold Difference to Pip6 [2]: 22998 | EC50 [2]: 5570 nM

CCc1c2c(nc3ccc(O)cc13)-c1cc3c(c(=O)n1C2)COC(=O)[C@]3(O)CC [SN-38]
Fold Difference to Pip6 [2]: ~3 | EC50 [2]: 0.75 nM

Oc1c2ccccc2c2c3c(cccc13)N=N2 [SP600125]
reduction of AZ0108-induced pan-nuclear γH2AX [1]: ~2 fold

Cn1ncnc1[C@H]1c2n[nH]c(=O)c3cc(F)cc(c23)N[C@@H]1c1ccc(F)cc1 [Talazoparib]
Fold Difference to Pip6 [2]: 59 | EC50 [2]: 14.2 nM

Cc1cn([C@H]2C[C@H](O)[C@@H](CO)O2)c(=O)[nH]c1=O [Thymidine]
G1 (HEK 293T cells [3]): 2.79% | G2 (HEK 293T cells [3]): 7.06% | S (HEK 293T cells [3]): 76.3%

CS(=O)(=O)c1ccc(-c2cnc(N)c(C(=O)Nc3ccccc3)n2)cc1 [VE-821]
effect on AZ0108-induced Ser345 phosphorylation of Chk1 [8]: significantly inhibited | increase of AZ0108-induced pan-nuclear γH2AX [1]: ~1.3 fold

C[C@]1(c2nc3c(C(N)=O)cccc3[nH]2)CCCN1 [Veliparib]
Fold Difference to Pip6 [2]: 245827 | EC50 [2]: 59600 nM

dumbbell DNA probe with central nick
binding signal [9]: 4 fold
